Values belong to the compound of their own block, whether it stands above or below them.
Target: interaction between p53 and MDM2 proteins (recombinant GST-tagged MDM2, biotinylated p53 peptide) (Homo sapiens, UniProt Q00987)
Assay: HTRF assay of inhibition of the p53-MDM2 interaction
Format: binding
Settings: 0.02% BSA
Method: The ability of the compounds to inhibit the interaction between p53 and MDM2 proteins was measured by an HTRF (homogeneous time-resolved fluorescence) assay in which recombinant GST-tagged MDM2 binds to a peptide that resembles the MDM2-interacting region of p53 (Lane et al.), Binding of GST-MDM2 protein and p53-peptide (biotinylated on its N-terminal end) is registered by the FRET (fluorescence resonance energy transfer) between Europium (Eu)-labeled ant-GST antibody and streptavidin-conjugated Allophycocyanin (APC).
[…] Add 10 uL diluted compounds (1:5 dilution in reaction buffer) to each well, mix by shaking. Add 20 uL biotinylated p53 peptide (180 nM working solution) in reaction buffer to each well and mix on shaker. Incubate at 37° C. for 1 h. Add 20 uL streptavidin-APC and Eu-anti-GST antibody mixture (6 nM Eu-anti-GST and 60 nM streptavidin-APC working solution) in TBS buffer with 0.2% BSA, shake at room temperature for 30 minutes and read using a TRF-capable plate reader at 665 and 615 nm (Victor 5, Perkin ElmerWallac). If not specified, the reagents were purchased from Sigma Chemical Co.

Sequence of interaction between p53 and MDM2 proteins (recombinant GST-tagged MDM2, biotinylated p53 peptide) (Q00987 whole entry): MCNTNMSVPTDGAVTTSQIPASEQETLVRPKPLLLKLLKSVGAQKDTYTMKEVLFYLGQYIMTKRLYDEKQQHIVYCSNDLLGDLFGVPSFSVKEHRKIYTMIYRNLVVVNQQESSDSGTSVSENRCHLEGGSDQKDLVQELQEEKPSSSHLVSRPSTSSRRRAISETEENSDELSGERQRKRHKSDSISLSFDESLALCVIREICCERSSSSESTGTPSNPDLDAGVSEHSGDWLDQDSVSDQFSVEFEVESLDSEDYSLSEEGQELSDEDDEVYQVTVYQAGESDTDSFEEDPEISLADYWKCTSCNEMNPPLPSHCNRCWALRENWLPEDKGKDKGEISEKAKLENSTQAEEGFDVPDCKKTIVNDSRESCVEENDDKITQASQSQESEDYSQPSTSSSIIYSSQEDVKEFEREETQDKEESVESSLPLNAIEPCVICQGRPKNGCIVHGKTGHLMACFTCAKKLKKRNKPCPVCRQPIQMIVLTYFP

SMILES: O=C1C[C@@H](c2cccc(Cl)c2)[C@@]2(C=C1c1ccc(F)cc1O)C(=O)Nc1cc(Cl)ccc12 (racemic) [Example 18, rac-(1R,6S)-6′-chloro-6-(3-chlorophenyl)-3-(4-fluoro-2-hydroxyphenyl)spiro[2-cyclohexene-1,3′-[3H]indole]-2′,4(1′H)-dione]
IC50: 2.99 µM

SMILES: C/C=C/C1=CC(=O)C[C@@H](c2cccc(Cl)c2)[C@]12C(=O)Nc1cc(Cl)ccc12 (racemic) [Example 10 (Compound B), rac-(1S,6S)-6′-chloro-6-(3-chlorophenyl)-2-(E)-(1-propenyl)spiro[2-cyclohexene-1,3′-[3H]indole]-2′,4(1′H)-dione]
IC50: 5.9 µM

The next compounds have a lower IC50 than those just listed; values first:

IC50: 1.39 µM
SMILES: C=Cc1ccccc1C1=CC(=O)C[C@@H](c2cccc(Cl)c2)[C@]12C(=O)Nc1cc(Cl)ccc12 (racemic) [Example 44 (Compound A), rac-(1R,6S)-6′-chloro-6-(3-chlorophenyl)-2-(2-ethylenephenyl)spiro[2-cyclohexene-1,3′-[3H]indole]-2′,4(1′H)-dione]

IC50: 1.66 µM
SMILES: O=C1C[C@@H](c2cccc(Cl)c2)[C@@]2(C=C1c1cc(F)ccc1O)C(=O)Nc1cc(Cl)ccc12 (racemic) [Example 17, rac-(1R,6S)-6′-chloro-6-(3-chlorophenyl)-3-(5-fluoro-2-hydroxyphenyl)spiro[2-cyclohexene-1,3′-[3H]indole]-2′,4(1′H)-dione]

IC50: 1.6 µM
SMILES: Cc1ccc(F)cc1C1=C[C@@]2(C(=O)Nc3cc(Cl)ccc32)[C@H](c2cccc(Cl)c2)C[C@@H]1O (racemic) [Example 5, rac-(1R, 4S, 6S)-6′-chloro-6-(3-chlorophenyl)-3-(5-fluoro-2-methylphenyl)-4-hydroxyspiro[2-cyclohexene-1,3′-[3H]indol]-2′(1′H)-one]
